These results are taken from the NIST ThermoML archive (doi:10.1016/j.jct.2010.07.001).

Each structure is given as a SMILES string. Numbers after ± are expanded uncertainties.

A short description of data set [1]: Molar enthalpy of transition or fusion. Conditions: Crystal; DSC.
The conditions of data set [2]: Crystal; DTA.

On to `c1ccc(-c2ccc(C(c3ccccc3)n3ccnc3)cc2)cc1` (configuration not stated) [1-([1,1'-biphenyl]-4-yl(phenyl)methyl)-1H-imidazole], for which the “Molar enthalpy of transition or fusion” value in data set [1] was 8.96 ± 0.239 kcal/mol. The Normal melting temperature in data set [2] is 150 ± 2.1 °C.
As to `CC(C)(C)NCC(O)COc1cccc2c1CC(O)C(O)C2` (configuration not stated), the “Molar enthalpy of transition or fusion” value in data set [1] turned out to be 12.7 ± 0.335 kcal/mol. The Normal melting temperature in data set [2] amounted to 130.2 ± 2.1 °C.
For `CS(=O)(=O)Nc1ccc([N+](=O)[O-])cc1Oc1ccccc1` [nimesulide] the same measures were 11.3 ± 0.311 kcal/mol and 149.1 ± 2.1 °C.
Turning to `Cc1cccc(Nc2ccccc2C(=O)O)c1C` [2-((2,3-dimethylphenyl)amino)benzoic acid], the “Molar enthalpy of transition or fusion” value in data set [1] came to 17 ± 9.56 kcal/mol. The Normal melting temperature in data set [2] amounted to 230.0 ± 2.1 °C.
For the compound `CC(C)NCC(O)COc1ccc(CC(N)=O)cc1` (configuration not stated) [2-(4-(2-hydroxy-3-(isopropylamino)propoxy)phenyl)acetamide], the “Molar enthalpy of transition or fusion” value in data set [1] is 8.75 ± 0.239 kcal/mol. Moreover, the Normal melting temperature in data set [2] was determined as 151.4 ± 2.1 °C.
Take `C[C@]12CC[C@@H]3c4ccc(O)cc4CC[C@H]3[C@@H]1CCC2=O` [3-hydroxy-1,3,5(10)-estratrien-17-one]: in data set [1], the “Molar enthalpy of transition or fusion” value came out at 10.8 ± 0.287 kcal/mol. Further, in data set [2], the Normal melting temperature amounted to 254.0 ± 2.1 °C.
